Legend:
[1] = target: T1, SMARCA4-HiBiT HeLa cells (protein which is expressed from the SMARCA4 gene) (Homo sapiens, UniProt P51532); assay: SMARCA4 degradation assay (HiBiT-fusion HeLa cell line, 24 h, luminescence); assay type: cell-based
T1 construct: protein which is expressed from the SMARCA2 and SMARCA4 genes; host or cells: HeLa (SMARCA4-HiBiT engineered line)
Summary of the method: (§1)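 In this 24-hour cellular degradation readout, HiBiT-tagged HeLa lines received compound at up to typically 10 μM down to 300 pM in 10 points. After lysis with LgBiT and substrate, luminescence signals were used to build dose-response curves for DC50.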

[2] = target: T2, SMARCA2-HiBiT HeLa cells (protein which is expressed from the SMARCA2 gene) (Homo sapiens, UniProt P51531); assay: SMARCA2 degradation assay (HiBiT-fusion HeLa cell line, 24 h, luminescence); assay type: cell-based
T2 construct: protein which is expressed from the SMARCA2 and SMARCA4 genes; host or cells: HeLa (SMARCA2-HiBiT engineered line)
Summary of the method: as §1

T2 sequence (P51531 whole entry, the tested form may be a part): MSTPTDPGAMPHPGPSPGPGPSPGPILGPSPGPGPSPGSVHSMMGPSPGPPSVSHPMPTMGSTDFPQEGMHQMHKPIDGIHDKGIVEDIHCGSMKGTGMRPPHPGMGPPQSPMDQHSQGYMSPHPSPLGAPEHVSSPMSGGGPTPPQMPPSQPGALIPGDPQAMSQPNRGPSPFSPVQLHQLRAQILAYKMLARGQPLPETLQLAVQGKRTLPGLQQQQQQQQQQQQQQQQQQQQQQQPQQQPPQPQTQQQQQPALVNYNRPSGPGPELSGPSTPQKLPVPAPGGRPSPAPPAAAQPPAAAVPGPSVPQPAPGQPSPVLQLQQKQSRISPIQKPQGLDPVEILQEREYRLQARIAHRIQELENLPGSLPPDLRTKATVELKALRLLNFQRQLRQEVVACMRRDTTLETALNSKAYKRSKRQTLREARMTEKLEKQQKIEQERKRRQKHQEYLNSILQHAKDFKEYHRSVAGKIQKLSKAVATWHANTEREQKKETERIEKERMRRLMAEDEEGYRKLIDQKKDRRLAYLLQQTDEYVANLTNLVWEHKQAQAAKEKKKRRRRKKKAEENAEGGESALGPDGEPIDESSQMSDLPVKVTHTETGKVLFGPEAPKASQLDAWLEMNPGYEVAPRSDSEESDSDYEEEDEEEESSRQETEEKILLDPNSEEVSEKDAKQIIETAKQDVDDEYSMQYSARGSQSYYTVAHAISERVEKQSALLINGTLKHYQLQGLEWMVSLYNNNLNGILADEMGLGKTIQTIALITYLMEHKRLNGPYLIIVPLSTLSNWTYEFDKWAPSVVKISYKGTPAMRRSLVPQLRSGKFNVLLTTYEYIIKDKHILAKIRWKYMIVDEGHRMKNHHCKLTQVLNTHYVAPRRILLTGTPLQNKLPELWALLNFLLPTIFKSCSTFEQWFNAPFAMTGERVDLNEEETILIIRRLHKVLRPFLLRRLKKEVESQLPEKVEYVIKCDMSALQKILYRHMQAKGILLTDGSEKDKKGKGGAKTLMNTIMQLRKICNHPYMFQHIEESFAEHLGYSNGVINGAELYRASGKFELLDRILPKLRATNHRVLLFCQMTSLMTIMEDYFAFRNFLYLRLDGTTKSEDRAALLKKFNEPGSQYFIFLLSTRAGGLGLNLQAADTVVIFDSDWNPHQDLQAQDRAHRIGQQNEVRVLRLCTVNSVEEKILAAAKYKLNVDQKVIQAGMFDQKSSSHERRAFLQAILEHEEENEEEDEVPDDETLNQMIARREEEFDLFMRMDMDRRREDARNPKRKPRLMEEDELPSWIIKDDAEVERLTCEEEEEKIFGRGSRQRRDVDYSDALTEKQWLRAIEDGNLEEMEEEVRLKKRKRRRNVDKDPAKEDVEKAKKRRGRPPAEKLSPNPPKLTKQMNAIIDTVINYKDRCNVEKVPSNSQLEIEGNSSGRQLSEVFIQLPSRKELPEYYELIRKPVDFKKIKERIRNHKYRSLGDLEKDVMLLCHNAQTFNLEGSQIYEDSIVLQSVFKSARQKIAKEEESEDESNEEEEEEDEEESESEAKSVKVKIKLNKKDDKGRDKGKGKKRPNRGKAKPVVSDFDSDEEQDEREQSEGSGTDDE
T1 sequence (P51532 whole entry, the tested form may be a part): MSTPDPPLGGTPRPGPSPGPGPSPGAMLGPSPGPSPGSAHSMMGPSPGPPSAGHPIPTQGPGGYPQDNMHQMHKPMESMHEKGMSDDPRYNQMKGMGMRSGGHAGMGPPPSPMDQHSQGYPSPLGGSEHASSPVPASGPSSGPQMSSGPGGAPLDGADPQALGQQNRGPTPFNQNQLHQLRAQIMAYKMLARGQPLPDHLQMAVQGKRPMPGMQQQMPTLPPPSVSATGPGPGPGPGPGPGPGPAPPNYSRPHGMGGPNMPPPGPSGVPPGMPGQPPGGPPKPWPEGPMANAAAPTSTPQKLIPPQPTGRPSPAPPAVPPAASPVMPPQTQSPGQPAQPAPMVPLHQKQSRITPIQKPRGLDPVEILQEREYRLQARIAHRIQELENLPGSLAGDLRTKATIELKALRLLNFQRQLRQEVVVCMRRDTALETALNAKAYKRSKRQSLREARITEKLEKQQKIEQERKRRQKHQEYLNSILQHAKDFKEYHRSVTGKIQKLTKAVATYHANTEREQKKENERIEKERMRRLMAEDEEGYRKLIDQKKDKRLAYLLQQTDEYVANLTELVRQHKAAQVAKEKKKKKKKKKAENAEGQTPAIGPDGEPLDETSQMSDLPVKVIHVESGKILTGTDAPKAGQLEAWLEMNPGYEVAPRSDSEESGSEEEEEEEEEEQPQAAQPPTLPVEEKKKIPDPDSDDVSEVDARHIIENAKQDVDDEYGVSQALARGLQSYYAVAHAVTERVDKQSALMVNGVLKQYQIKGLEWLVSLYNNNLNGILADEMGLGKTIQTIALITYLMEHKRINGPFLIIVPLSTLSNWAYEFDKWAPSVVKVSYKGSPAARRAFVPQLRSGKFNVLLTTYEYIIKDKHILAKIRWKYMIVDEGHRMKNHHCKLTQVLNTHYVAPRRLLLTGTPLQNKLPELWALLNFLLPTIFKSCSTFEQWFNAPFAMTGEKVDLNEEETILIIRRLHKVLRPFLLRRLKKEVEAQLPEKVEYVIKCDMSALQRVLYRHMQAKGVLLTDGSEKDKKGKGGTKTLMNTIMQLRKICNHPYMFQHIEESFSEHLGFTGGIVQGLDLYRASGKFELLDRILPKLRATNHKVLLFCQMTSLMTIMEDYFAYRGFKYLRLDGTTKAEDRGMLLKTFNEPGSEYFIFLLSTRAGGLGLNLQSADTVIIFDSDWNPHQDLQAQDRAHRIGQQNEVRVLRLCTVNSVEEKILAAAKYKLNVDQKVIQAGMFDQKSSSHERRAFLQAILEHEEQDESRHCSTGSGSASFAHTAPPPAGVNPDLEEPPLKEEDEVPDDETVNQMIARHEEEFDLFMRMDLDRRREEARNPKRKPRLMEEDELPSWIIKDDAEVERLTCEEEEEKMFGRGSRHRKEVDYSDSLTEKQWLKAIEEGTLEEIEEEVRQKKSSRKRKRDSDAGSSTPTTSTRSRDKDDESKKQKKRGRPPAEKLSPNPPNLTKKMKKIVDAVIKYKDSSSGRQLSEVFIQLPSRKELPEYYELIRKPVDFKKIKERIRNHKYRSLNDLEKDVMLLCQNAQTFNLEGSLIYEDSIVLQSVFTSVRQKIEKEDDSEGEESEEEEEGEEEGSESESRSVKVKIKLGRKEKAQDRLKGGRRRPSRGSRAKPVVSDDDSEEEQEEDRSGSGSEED

SMILES	DC50 [1] [nM]	inhibition at 1 µM [1] [%]	DC50 [2] [nM]	SMARCA2 % Degradation @ 1 μM [2]
Nc1nnc(-c2ccccc2O)cc1N1CCC2(CCN(c3ccnc(C#CCn4ccnc4)n3)CC2)C1 [Compound P-253, o-[6-amino-5-(8-{2-[3-(1-imidazolyl)-1-propynyl]-4-pyrimidinyl}-2,8-diaza-2-spiro [4.5]decyl)-3-pyridazinyl]phenol]	50 to 500	30 to 70	50 to 500	++ (++=30-70%)
N#CCNCC#Cc1nccc(N2CCCN(c3cc(-c4ccccc4O)nnc3N)CC2)n1 [Compound P-255, [3-(4-{4-[3-amino-6-(o-hydroxyphenyl)-4-pyridaziny1]-1,4-diazepan-1-yl}-2-pyrimidinyl)-2-propynylamino]acetonitrile]	50 to 500	30 to 70	50 to 500	++ (++=30-70%)
CN1CCC(C#Cc2nccc(N3CCCN(c4cc(-c5ccccc5O)nnc4N)CC3)n2)CC1 [Compound P-256, o-[6-amino-5-(4-{2-[2-(1-methyl-4-piperidyl)ethynyl]-4-pyrimidinyl}-1,4-diazepan-1-yl)-3-pyridazinyl]phenol]	500 to 5000	30 to 70	50 to 500	++ (++=30-70%)
CC[C@H](C)NCC#Cc1nccc(N2CCCN(c3cc(-c4ccccc4O)nnc3N)CC2)n1 [Compound P-257, o-{5-[4-(2-{3-[(S)-1-methylpropylamino]-1-propynyl}-4-pyrimidinyl)-1,4-diazepan-1-yl]-6-amino-3-pyridazinyl}phenol]	50 to 500	30 to 70	50 to 500	+++ (+++=>70%)
Nc1nnc(-c2ccccc2O)cc1N1CCCN(c2ccnc(C#CCNCCF)n2)CC1 [Compound P-258, o-[6-amino-5-(4-{2-[3-(2-fluoroethylamino)-1-propynyl]-4-pyrimidinyl}-1,4-diazepan-1-yl)-3-pyridazinyl]phenol]	500 to 5000	30 to 70	500 to 5000	++ (++=30-70%)
CC(C)(C)OC(=O)NCC#Cc1nccc(N2CC3=C(C2)CN(c2cc(-c4ccccc4O)nnc2N)C3)n1 [Compound P-259, 3-(4-{7-[3-amino-6-(o-hydroxyphenyl)-4-pyridaziny1]-3,7-diazabicyclo[3.3.0]oct-1(5)-en-3-y1}-2-pyrimidinyl)-2-propynylamino-tert-butylformylate]	< 50	30 to 70	< 50	++ (++=30-70%)
C[C@@H]1CCN(c2cc(-c3ccccc3O)nnc2N)CCN1c1ccnc(C#CCN2[C@H](C)COC[C@@H]2C)n1 [Compound P-260, o-{5-[(R)-4-(2-{3-[(3R,5S)-3,5-dimethyl-4-morpholiny1]-1-propynyl}-4-pyrimidinyl)-5-methyl-1,4-diazepan-1-yl]-6-amino-3-pyridaziny1}phenol]	50 to 500	< 30	< 50	++ (++=30-70%)
C[C@@H]1CCN(c2cc(-c3ccccc3O)nnc2N)CCN1c1ccnc(C#CCN2[C@@H]3CC[C@H]2C[C@@H](O)C3)n1 [Compound P-261, 8-[3-(4-{(R)-4-[3-amino-6-(o-hydroxyphenyl)-4-pyridazinyl]-7-methyl-1,4-diazepan-1-yl}-2-pyrimidinyl)-2-propynyl]-8-azabicyclo[3.2.1]octan-3-ol]	50 to 500	30 to 70	50 to 500	+++ (+++=>70%)
CC(C)[C@@H]1COCCN1CC#Cc1nccc(N2CCN(c3cc(-c4ccccc4O)nnc3N)CC[C@H]2C)n1 [Compound P-262, o-{5-[(R)-4-(2-{3-[(R)-3-isopropyl-4-morpholinyl]-1-propynyl}-4-pyrimidinyl)-5-methyl-1,4-diazepan-1-yl]-6-amino-3-pyridazinyl} phenol]	50 to 500	30 to 70	50 to 500	+++ (+++=>70%)
C[C@@H]1CCN(c2cc(-c3ccccc3O)nnc2N)CCN1c1ccnc(C#C[C@@H](O)C2CC2)n1 [Compound P-265, o-{5-[(R)-4-{2-[(S)-3-cyclopropyl-3-hydroxy-1-propynyl]-4-pyrimidinyl}-5-methyl-1,4-diazepan-1-yl]-6-amino-3-pyridaziny1} phenol]	50 to 500	> 70	50 to 500	+++ (+++=>70%)
CC(C)(C)OC(=O)NCC#Cc1nccc(N2CCC3CCC(C2)N3c2cc(-c3ccccc3O)nnc2N)n1 (stereo not shown) [Compound P-267, 3-(4-{9-[3-amino-6-(o-hydroxyphenyl)-4-pyridaziny1]-3,9-diazabicyclo[4.2.1]non-3-yl}-2-pyrimidinyl)-2-propynylamino-tert-butylformylate]	50 to 500	30 to 70	50 to 500	+++ (+++=>70%)
C[C@@H]1CCN(c2cc(-c3ccccc3O)nnc2N)CCN1c1ccnc(C#CCNC(=O)OC2CC/C=C\CCC2)n1 (stereo partly drawn) [Compound P-268, 4-[(R)-4-(2-{3-[(Z)-4-cycloocten-1-yloxycarbonylamino]-1-propynyl}-4-pyrimidinyl)-5-methyl-1,4-diazepan-1-yl]-6-(o-hydroxyphenyl)-3-pyridazinamine]	50 to 500	30 to 70	50 to 500	+++ (+++=>70%)

Next, values leading:

DC50 [1] [nM]	inhibition at 1 µM [1] [%]	DC50 [2] [nM]	SMARCA2 % Degradation @ 1 μM [2]	SMILES
< 50	< 30	< 50	++ (++=30-70%)	CC1CC(C)N1CC#Cc1nccc(N2CCN(c3cc(-c4ccccc4O)nnc3N)CC[C@H]2C)n1 (stereo partly drawn) [Compound P-249, o-{5-[(R)-4-{2-[3-(2,4-dimethyl-1-azetidinyl)-1-propynyl]-4-pyrimidinyl}-5-methyl-1,4-diazepan-1-yl]-6-amino-3-pyridaziny1} phenol]
< 50	> 70	< 50	+++ (+++=>70%)	C[C@H]1CCN(c2cc(-c3ccccc3O)nnc2N)CCN1c1ccnc(C#CCN(C)C)n1 [Compound P-250]
50 to 500	30 to 70	50 to 500	+++ (+++=>70%)	C[C@@H]1CCN(c2cc(-c3ccccc3O)nnc2N)CCN1c1ccnc(C#CCOCC2CC(N(C)C)C2)n1 (stereo partly drawn) [Compound P-251, o-{5-[(R)-4-[2-(3-{[3-(dimethylamino)cyclobutyl]methoxy}-1-propynyl)-4-pyrimidinyl]-5-methyl-1,4-diazepan-1-yl]-6-amino-3-pyridazinyl}phenol]
50 to 500	30 to 70	50 to 500	++ (++=30-70%)	C[C@@H]1CCN(c2cc(-c3ccccc3O)nnc2N)CCN1c1ccnc(C#CCN2CC(F)(F)C2)n1 [Compound P-252, o-{5-[(R)-4-{2-[3-(3,3-difluoro-1-azetidinyl)-1-propynyl]-4-pyrimidinyl}-5-methyl-1,4-diazepan-1-yl]-6-amino-3-pyridazinyl}phenol]
< 50	30 to 70	< 50	++ (++=30-70%)	CC(C#Cc1nccc(N2CCN(c3cc(-c4ccccc4O)nnc3N)CC[C@H]2C)n1)N(C)C (stereo partly drawn) [Compound P-254, o-{5-[(R)-4-{2-[3-(dimethylamino)-1-butynyl]-4-pyrimidinyl}-5-methyl-1,4-diazepan-1-yl]-6-amino-3-pyridazinyl}phenol]
< 50	< 30	50 to 500	++ (++=30-70%)	C[C@@H]1CCN(c2cc(-c3ccccc3O)nnc2N)CCN1c1ccnc(C#CCN2CC[C@H]2CF)n1 [Compound P-263, o-{5-[(R)-4-(2-{3-[(S)-2-(fluoromethyl)-1-azetidinyl]-1-propynyl}-4-pyrimidinyl)-5-methyl-1,4-diazepan-1-yl]-6-amino-3-pyridazinyl}phenol]
< 50	30 to 70	< 50	++ (++=30-70%)	C[C@@H]1CCN(c2cc(-c3ccccc3O)nnc2N)CCN1c1ccnc(C#CCN2[C@H](C)C[C@H]2C)n1 [Compound P-264, o-{5-[(R)-4-(2-{3-[(2R,4R)-2,4-dimethyl-1-azetidinyl]-1-propynyl}-4-pyrimidinyl)-5-methyl-1,4-diazepan-1-yl]-6-amino-3-pyridazinyl}phenol]
50 to 500	30 to 70	50 to 500	+++ (+++=>70%)	C[C@@H]1CCN(c2cc(-c3ccccc3O)nnc2N)CCN1c1ccnc(C#C[C@H](O)C2CC2)n1 [Compound P-266, 0-{5-[(R)-4-{2-[(R)-3-cyclopropyl-3-hydroxy-1-propynyl]-4-pyrimidinyl}-5-methyl-1,4-diazepan-1-yl]-6-amino-3-pyridaziny1} phenol]
50 to 500	> 70	50 to 500	+++ (+++=>70%)	C[C@@H]1CCN(c2cc(-c3ccccc3O)nnc2N)CCN1c1ccnc(C#CC2CC(F)(F)C2)n1 [Compound P-269, 0-{5-[(R)-4-{2-[2-(3,3-difluorocyclobutyl)ethynyl]-4-pyrimidinyl}-5-methyl-1,4-diazepan-1-y1]-6-amino-3-pyridazinyl} phenol]
50 to 500	30 to 70	50 to 500	++ (++=30-70%)	C[C@@H]1CCN(c2cc(-c3ccccc3O)nnc2N)CCN1c1ccnc(C#CCN2CC(F)(F)[C@@H]2C)n1 [Compound P-270, 0-{5-[(R)-4-(2-{3-[(S)-3,3-difluoro-2-methyl-1-azetidinyl]-1-propyny1}-4-pyrimidinyl)-5-methyl-1,4-diazepan-1-yl]-6-amino-3-pyridaziny1} phenol]
